The nature of data set [1]: Pharmacokinetic study of the racemate of the compound of formula (I) in SD rats. Type of data set: in vivo. As to the method: 2.1 Pharmacokinetic Study of the Racemate of the Compound of Formula (I) in SD Rats
Experimental purpose: To study the pharmacokinetics of the compounds in SD rats
Experimental material: SD rats (male, 7-10 weeks old, WTLH/SLAC)
Experimental procedure: The pharmacokinetic characteristics of the compounds were tested in rodents after intravenous (IV) and oral (PO) administration using standard protocols. The candidate compounds were prepared into 0.2 mg/mL clarified solutions and administrated to rats for single intravenous injection and oral administration. The solvent for both intravenous and oral administration was 5% DMSO/95% (10% hydroxypropyl β-cyclodextrin) aqueous solution. […] Whole blood samples were collected within 24 hours, centrifuged at 3000 g for 15 minutes, and the supernatant was separated to obtain plasma samples, and the proteins were precipitated by adding acetonitrile solution containing internal standard; the mixture was well mixed and centrifuged, and the supernatant was injected for quantitative analysis of plasma drug concentrations by LC-MS/MS analysis method, and pharmacokinetic parameters were calculated, such as peak concentration (Cmax), clearance rate (CL), half-life (T1/2), […] (Vdss), area under the drug-time curve (AUC0-last), bioavailability (F), etc.

The target in a further data set is ROCK1 (Homo sapiens, UniProt Q13464). The data set is described as follows: In vitro evaluation of ROCK protein kinase inhibitory activity (33P-ATP filter-binding), ROCK1. The conditions noted are these: 1 nM kinase, 20 μM Long S6 Kinase substrate peptide, 2 hours room temperature. Format: biochemical. How it is done:
(§1) 1. In Vitro Evaluation of ROCK Protein Kinase Inhibitory Activity
(§2) Experimental purpose: To detect the IC50 value of ROCK protein kinase inhibition of compounds.
(§3) Experimental materials: assay buffer solution: 20 mM 4-hydroxyethyl piperazine ethanesulfonic acid (pH 7.5), 10 mM magnesium chloride, 1 mM ethylene glycol diethyl ether diaminetetraacetic acid, 0.02% polyoxyethylene lauryl ether, 0.02 mg/mL bovine serum albumin, 0.1 mM sodium vanadate, 2 mM dithiothreitol, 1% DMSO.
Experimental operation: ROCK protein kinase substrate Long S6 Kinase substrate peptide was added to a freshly prepared buffer solution at a concentration of 20 μM, then 1 nM ROCK protein kinase was added, and the mixture was stirred evenly. A series of DMSO diluents containing the compounds to be tested were added with Echo550 (started at […], diluted by 3 times series), preincubated at room temperature for 20 minutes, and ^33P-ATP (radiation intensity 10 μCi/μL) was added to initiate the reaction, and the reaction was carried out for 2 hours at room temperature. […] Radiation intensity was detected using the Filter-Binding method.
(§4) The protein kinase inhibitory activity of the compound was expressed as the residual protein kinase activity relative to the blank substrate (DMSO alone). IC50 values and curves were calculated using the Prism software package (GraphPad Software, San Diego Calif., USA).

Another data set has as its target ROCK2 (Homo sapiens, UniProt O75116). The data set is described as follows: In vitro evaluation of ROCK protein kinase inhibitory activity (33P-ATP filter-binding), ROCK2. Type of data set: biochemical. How it is done: as §1, §2, §3
Experimental operation: ROCK protein kinase substrate Long S6 Kinase substrate peptide was added to a freshly prepared buffer solution at a concentration of 20 μM, then 1 nM ROCK protein kinase was added, and the mixture was stirred evenly. A series of DMSO diluents containing the compounds to be tested were added with Echo550 (started at […], diluted by 3 times series), preincubated at room temperature for 20 minutes, and ^33P-ATP (radiation intensity 10 μCi/μL) was added to initiate the reaction, and the reaction was carried out for 2 hours at room temperature. The mixture was then filtered using P81 ion exchange paper (Whatman #3698-915) and washed with 0.75% phosphoric acid. Radiation intensity was detected using the Filter-Binding method.
as §4

Data set [2] can be described thus: Solid stability test of the crystal form B of the compound of formula (II-2) (XRPD). Format: physicochemical. How it is done:
About 10 mg of the crystal form was accurately weighed and added to a dry and clean glass flask, spread into a thin layer, covered with aluminum foil, pierced small holes and placed under the influence factor test conditions and under accelerated conditions. Samples placed under illumination (visible light 1200000 Lux, UV 200 W) conditions were placed in clear glass flasks, fully exposed, and samples used for XRPD detection were placed separately.
After the samples were removed at the time point, the cover was covered, and the flask was sealed using sealing film, and stored in −20° C. refrigerator. When preparing the sample, the sample was removed from the refrigerator, restored to room temperature; 80% ACN (10 mL) was added, and the sample was dissolved by sonication for 2 min to obtain a solution with a concentration of about 1 mg/mL, then the liquid phase was used for injection analysis, and the detection results were compared with the initial detection results on day 0.
Preparation of standard solution on day 0: About 10 mg of the crystal form was weighed and added to a 10 mL volumetric flask, dissolved with 80% ACN and the volume was fixed to the scale.

Molecules are shown by their SMILES.

Sequence of ROCK2 (O75116 whole entry): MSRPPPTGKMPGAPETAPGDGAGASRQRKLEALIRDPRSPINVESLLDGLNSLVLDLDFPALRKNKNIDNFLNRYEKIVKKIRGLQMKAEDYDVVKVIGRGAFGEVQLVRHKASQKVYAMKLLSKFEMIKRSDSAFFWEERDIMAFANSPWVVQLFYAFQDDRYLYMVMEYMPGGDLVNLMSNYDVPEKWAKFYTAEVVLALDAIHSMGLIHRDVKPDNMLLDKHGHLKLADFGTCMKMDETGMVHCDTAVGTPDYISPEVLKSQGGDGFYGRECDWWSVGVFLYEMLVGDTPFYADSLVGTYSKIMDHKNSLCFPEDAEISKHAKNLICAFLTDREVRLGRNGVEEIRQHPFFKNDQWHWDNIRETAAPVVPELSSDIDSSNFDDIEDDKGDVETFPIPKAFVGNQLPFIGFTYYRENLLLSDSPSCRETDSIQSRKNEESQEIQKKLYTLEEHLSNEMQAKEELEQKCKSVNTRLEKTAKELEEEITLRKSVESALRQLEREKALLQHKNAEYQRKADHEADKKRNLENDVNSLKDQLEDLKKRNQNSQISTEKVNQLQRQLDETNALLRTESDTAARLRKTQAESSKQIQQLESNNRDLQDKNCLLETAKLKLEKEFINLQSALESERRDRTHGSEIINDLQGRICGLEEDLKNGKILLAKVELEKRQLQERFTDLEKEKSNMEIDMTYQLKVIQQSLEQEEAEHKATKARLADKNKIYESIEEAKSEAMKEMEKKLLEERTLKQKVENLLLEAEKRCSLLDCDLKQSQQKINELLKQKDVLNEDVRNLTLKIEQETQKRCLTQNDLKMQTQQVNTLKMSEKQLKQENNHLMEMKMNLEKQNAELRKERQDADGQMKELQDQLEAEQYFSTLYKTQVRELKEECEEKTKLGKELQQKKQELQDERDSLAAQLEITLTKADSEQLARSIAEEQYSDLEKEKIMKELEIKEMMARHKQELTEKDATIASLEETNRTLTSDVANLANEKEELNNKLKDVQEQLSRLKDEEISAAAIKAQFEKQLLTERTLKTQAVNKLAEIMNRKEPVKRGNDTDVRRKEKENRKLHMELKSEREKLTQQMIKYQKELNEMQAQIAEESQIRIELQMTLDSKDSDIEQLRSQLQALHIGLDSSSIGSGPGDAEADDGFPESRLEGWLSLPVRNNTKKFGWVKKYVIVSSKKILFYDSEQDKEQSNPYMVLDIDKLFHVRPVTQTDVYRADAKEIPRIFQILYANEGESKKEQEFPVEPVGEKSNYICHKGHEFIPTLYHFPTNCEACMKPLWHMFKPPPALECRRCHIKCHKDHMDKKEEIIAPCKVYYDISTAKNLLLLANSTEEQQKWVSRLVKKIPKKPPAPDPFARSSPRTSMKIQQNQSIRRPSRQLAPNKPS
Sequence of ROCK1 (Q13464 whole entry): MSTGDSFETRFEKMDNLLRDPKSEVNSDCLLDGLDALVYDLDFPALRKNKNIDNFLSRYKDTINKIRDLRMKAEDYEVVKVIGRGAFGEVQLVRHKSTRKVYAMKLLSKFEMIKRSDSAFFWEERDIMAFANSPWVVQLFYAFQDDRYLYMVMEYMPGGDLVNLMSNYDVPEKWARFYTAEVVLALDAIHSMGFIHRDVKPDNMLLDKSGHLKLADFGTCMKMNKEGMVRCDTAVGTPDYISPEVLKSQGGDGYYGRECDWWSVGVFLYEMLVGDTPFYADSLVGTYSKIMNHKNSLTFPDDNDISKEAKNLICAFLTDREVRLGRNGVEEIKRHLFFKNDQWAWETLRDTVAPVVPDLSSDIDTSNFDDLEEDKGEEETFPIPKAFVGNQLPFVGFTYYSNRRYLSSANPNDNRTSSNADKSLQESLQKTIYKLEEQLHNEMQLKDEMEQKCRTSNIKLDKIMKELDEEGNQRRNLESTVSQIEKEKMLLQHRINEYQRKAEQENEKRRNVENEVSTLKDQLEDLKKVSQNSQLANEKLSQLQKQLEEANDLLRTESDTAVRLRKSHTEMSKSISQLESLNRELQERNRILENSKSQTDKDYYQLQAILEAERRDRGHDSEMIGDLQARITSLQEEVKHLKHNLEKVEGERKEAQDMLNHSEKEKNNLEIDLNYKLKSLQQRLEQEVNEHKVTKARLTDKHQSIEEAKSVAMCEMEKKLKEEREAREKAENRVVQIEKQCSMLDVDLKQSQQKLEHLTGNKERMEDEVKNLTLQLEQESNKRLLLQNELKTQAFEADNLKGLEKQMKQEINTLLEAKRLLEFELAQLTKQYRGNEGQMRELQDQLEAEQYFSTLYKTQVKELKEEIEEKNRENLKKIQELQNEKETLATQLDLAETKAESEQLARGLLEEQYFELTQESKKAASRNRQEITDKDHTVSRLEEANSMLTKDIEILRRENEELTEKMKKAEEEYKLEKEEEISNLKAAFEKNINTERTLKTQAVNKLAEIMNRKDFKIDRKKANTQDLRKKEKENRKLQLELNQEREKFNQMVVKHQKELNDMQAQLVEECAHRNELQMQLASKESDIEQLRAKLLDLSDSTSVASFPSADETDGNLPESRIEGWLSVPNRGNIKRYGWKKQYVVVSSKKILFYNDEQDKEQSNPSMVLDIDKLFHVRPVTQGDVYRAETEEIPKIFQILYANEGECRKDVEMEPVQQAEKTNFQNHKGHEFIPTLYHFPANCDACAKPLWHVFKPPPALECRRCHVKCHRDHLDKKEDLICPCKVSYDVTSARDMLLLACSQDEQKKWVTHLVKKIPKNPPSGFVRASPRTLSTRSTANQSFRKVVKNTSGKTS

For the compound `COc1cccc(C(CN)NC(=O)c2cc(-c3ccc4[nH]nc(C)c4c3)ccn2)c1` (racemic) [Racemate of compound of formula (I)], the “pharmacokinetic properties (conclusion in words)” value in data set [1] is “good pharmacokinetic properties”. The Vd in data set [1] (rat, plasma, male, IV 1 mg/kg, read-out: Tissue distribution Vdss) is 6 L/kg.
With `COc1cccc([C@@H](CN)NC(=O)c2cc(-c3ccc4[nH]nc(C)c4c3)ccn2)c1` [Compound of formula (II)], the concentration for half-maximal inhibition (IC50) at ROCK1 was determined as 13 nM; on ROCK2 (1 nM kinase, 20 μM Long S6 Kinase substrate peptide, 33P-ATP, 2 hours room temperature) it was 2 nM. For the same compound, on ROCK2, the “inhibitory activity against ROCK2 (conclusion in words)” value is recorded as “good inhibitory activity”. Moreover, the “selectivity for ROCK2 (conclusion in words)” value at ROCK2 (ROCK2 versus ROCK1) was “some selectivity”.
On to `CC(=O)O.COc1cccc(C(CN)NC(=O)c2cc(-c3ccc4[nH]nc(C)c4c3)ccn2)c1` (centres unmarked), for which the Crystal form entry is on record as “Crystal form B” in data set [2] (0 day); “Crystal form B” in data set [2] (High humidity (relative humidity 75%, open), 5 days); “Crystal form B” in data set [2] (High humidity (relative humidity 75%, open), 10 days); “Crystal form B” in data set [2] (High humidity (relative humidity 92.5%, open), 5 days); “Crystal form B” in data set [2] (High humidity (relative humidity 92.5%, open), 10 days); “Crystal form B” in data set [2] (High temperature (60° C., open), 5 days). Besides, the Crystal form entry is recorded as “Crystal form B” in data set [2] (High temperature (60° C., open), 10 days); “Crystal form B” in data set [2] (High temperature and humidity (40° C. relative humidity 75%, open), first entry, 5 days); “Crystal form B” in data set [2] (High temperature and humidity (40° C. relative humidity 75%, open), first entry, 10 days); “Crystal form B” in data set [2] (High temperature and humidity (40° C. relative humidity 75%, open), second entry, 5 days); “Crystal form B” in data set [2] (High temperature and humidity (40° C. relative humidity 75%, open), second entry, 10 days); “Crystal form B” in data set [2] (Illumination (total illuminance = 1.2 × 10^6 Lux·hr/near UV = 200 w·hr/m^2, open), 5 days). In data set [2] (Illumination (total illuminance = 1.2 × 10^6 Lux·hr/near UV = 200 w·hr/m^2, open), 10 days), the Crystal form entry was “Crystal form B”. In addition, the “solid stability (conclusion in words)” value in data set [2] (high temperature, high humidity and strong illumination conditions) is recorded as “good stability”.

As usually defined, the IC50 is the concentration needed to halve the response being measured. Low readings indicate greater potency, high ones weaker potency.

(Values after patent US11702400B2, “Salt types, crystal forms, and preparation methods for benzopyrazole compounds as RHO kinase inhibitors” (MEDSHINE DISCOVERY INC., priority 2019, dated 2023).)
